As a reminder, the IC50 is the point on the concentration scale where inhibition reaches its midpoint.

Structures can show the parent of a compound that is named as a salt.

The assay has as its target T1, full length SGK1 (Homo sapiens, UniProt O00141).
T1 construct: 125 μM full length SGK1 (Life Technologies Part #PR7358A); purchased Life Technologies PR7358A
T1 sequence (O00141 1-431): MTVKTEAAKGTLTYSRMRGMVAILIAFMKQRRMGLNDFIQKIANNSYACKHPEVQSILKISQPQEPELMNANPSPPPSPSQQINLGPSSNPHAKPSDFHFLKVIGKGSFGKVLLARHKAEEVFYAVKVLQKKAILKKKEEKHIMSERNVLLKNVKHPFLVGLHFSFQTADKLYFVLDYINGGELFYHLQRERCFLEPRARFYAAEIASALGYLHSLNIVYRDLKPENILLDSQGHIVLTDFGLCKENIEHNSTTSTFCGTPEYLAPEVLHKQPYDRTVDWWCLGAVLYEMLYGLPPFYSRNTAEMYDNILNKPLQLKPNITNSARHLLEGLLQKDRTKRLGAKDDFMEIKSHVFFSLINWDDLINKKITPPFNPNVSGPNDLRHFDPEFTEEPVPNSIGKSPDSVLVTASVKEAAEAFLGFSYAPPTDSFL
Put plainly: SGK1 inhibition Assay A (Caliper LabChip electrophoretic separation of fluorescent peptide substrate and phosphorylated product). In kind it is biochemical. Particulars: Assay A; 20 μM ATP, 40 min incubation; read-out: SGK1 IC50.
With `CC(=O)N1CC=C(c2cc(N3CCC[C@@H](NC(=O)c4sc(Cl)cc4OC4CC5(CNC5)C4)C3)c3c(N)ncnn23)C1` [Example 580], the IC50 is 5 nM. As for `NC(=O)Cn1cc(-c2cc(N3CCC[C@@H](NC(=O)c4ccc(Cl)s4)C3)c3c(N)ncnn23)nn1` [Example 865, (R)—N-(1-(4-amino-7-(1-(2-amino-2-oxoethyl)-1H-1,2,3-triazol-4-yl)pyrrolo[2,1-f][1,2,4]triazin-5-yl)piperidin-3-yl)-5-chlorothiophene-2-carboxamide], the figure is 731 nM; as for `CNc1cccc(C(=O)N[C@@H]2CCCN(c3cc(C4=CCN(C(C)=O)C4)n4ncnc(N)c34)C2)n1` [Example 778, (R)-N-(1-(7-(1-acetyl-2,5-dihydro-1H-pyrrol-3-yl)-4-aminopyrrolo[2,1-f][1,2,4]triazin-5-yl)piperidin-3-yl)-6-(methylamino)picolinamide], 21 nM. As for `CN(C)CCOc1cc(C(F)F)sc1C(=O)N[C@@H]1CCCN(c2cc(-c3ccnc(C(F)F)c3)n3ncnc(N)c23)C1` [Example 343, (R)—N-(1-(4-amino-7-(2-(difluoromethyl)pyridin-4-yl)pyrrolo[2,1-f][1,2,4]triazin-5-yl)piperidin-3-yl)-5-(difluoromethyl)-3-(2-(dimethylamino)ethoxy)thiophene-2-carboxamide], the figure is 5 nM. As for `CN(C)CCOc1cc(Cl)sc1C(=O)N[C@@H]1CCCN(c2cc(C3=CCN(C(=O)C4CC4)CC3)n3ncnc(N)c23)C1` [Example 182, (R)-N-(1-(4-amino-7-(1-(cyclopropanecarbonyl)-1,2,3,6-tetrahydropyridin-4-yl)pyrrolo[2,1-f][1,2,4]triazin-5-yl)piperidin-3-yl)-5-chloro-3-(2-(dimethylamino)ethoxy) thiophene-2-carboxamide, 2 TFA], the figure is 35 nM; as for `CC(=O)N1CC=C(c2cc(N3CCC[C@@H](NC(=O)c4cccc(N5CCN(CC(F)F)CC5)n4)C3)c3c(N)ncnn23)C1` [Example 750, (R)-N-(1-(7-(1-acetyl-2,5-dihydro-1H-pyrrol-3-yl)-4-aminopyrrolo[2,1-f][1,2,4]triazin-5-yl)piperidin-3-yl)-6-(4-(2,2-difluoroethyl)piperazin-1-yl)picolinamide], 41 nM; as for `CS(=O)(=O)c1ccc(-c2cc(N3CCC[C@@H](NC(=O)c4cccc(C5CC5)c4)C3)c3c(N)ncnn23)cc1` [Example 82, (R)-N-(1-(4-amino-7-(4-(methylsulfonyl)phenyl)pyrrolo[2,1-f][1,2,4]triazin-5-yl)piperidin-3-yl)-3-cyclopropylbenzamide], 15 nM. As to `CC(=O)N1CC=C(c2cc(N3CCC[C@@H](NC(=O)c4sc(C5CC5)cc4OCCN(C)C)C3)c3c(N)ncnn23)C1` [Example 370, (R)—N-(1-(7-(1-acetyl-2,5-dihydro-1H-pyrrol-3-yl)-4-aminopyrrolo[2,1-f][1,2,4]triazin-5-yl)piperidin-3-yl)-5-cyclopropyl-3-(2-(dimethylamino)ethoxy)thiophene-2-carboxamide], the IC50 came out at 18 nM.

As to `CS(=O)(=O)c1ccc(-c2cc(N3CCC[C@@H](NC(=O)c4sccc4F)C3)c3c(N)ncnn23)cc1` [Example 98, (R)-N-(1-(4-amino-7-(4-(methylsulfonyl)phenyl)pyrrolo[2,1-f][1,2,4]triazin-5-yl)piperidin-3-yl)-3-fluorothiophene-2-carboxamide], the IC50 is 14 nM. As for `Nc1ncnn2c(C3=CCN(C(=O)c4ccns4)C3)cc(N3CCC[C@@H](NC(=O)c4ccc(Cl)s4)C3)c12` [Example 885, (R)-N-(1-(4-amino-7-(1-(isothiazole-5-carbonyl)-2,5-dihydro-1H-pyrrol-3-yl)pyrrolo[2,1-f][1,2,4]triazin-5-y1)piperidin-3-y1)-5-chlorothiophene-2-carboxamide], the figure is 8 nM; as for `CC(C)(C)OC(=O)CCn1cc(-c2cc(N3CCC[C@@H](NC(=O)c4ccc(Cl)s4)C3)c3c(N)ncnn23)nn1` [Example 863, tert-butyl (R)-3-(4-(4-amino-5-(3-(5-chlorothiophene-2-carboxamido)piperidin-1-yl)pyrrolo[2,1-f][1,2,4]triazin-7-yl)-1H-1,2,3-triazol-1-yl)propanoate], 467 nM; as for `N#Cc1ccc(-c2cc(N3CCC[C@@H](NC(=O)c4n[nH]c5ccccc45)C3)c3c(N)ncnn23)cn1` [Example 648, (R)-N-(1-(4-amino-7-(6-cyanopyridin-3-yl)pyrrolo[2,1-f][1,2,4]triazin-5-yl)piperidin-3-y1)-1H-indazole-3-carboxamide], 104 nM. For the molecule `CC(=O)N1CC=C(c2cc(N3CCC[C@@H](NC(=O)c4sc(Cl)cc4OC4CCN(C5COC5)CC4)C3)c3c(N)ncnn23)C1` [Example 582], the IC50 is 10 nM.

Take `CC(=O)N1CC=C(c2cc(N3CCC[C@@H](NC(=O)c4ccc(Cl)s4)C3)c3c(N)ncnn23)C1` [Example 731, (R)-N-(1-(7-(1-acctyl-2,5-dihydro-1H-pyrrol-3-yl)-4-aminopyrrolo[2,1-f][1,2,4]triazin-5-yl)piperidin-3-yl)-5-chlorothiophene-2-carboxamide]: the IC50 turned out to be 6 nM. As for `Nc1ncnn2c(-c3ccc(-n4cnnn4)c(F)c3)cc(N3CCC[C@@H](NC(=O)c4ccc(Cl)s4)C3)c12` [Example 245, (R)-N-(1-(4-amino-7-(3-fluoro-4-(1H-tetrazol-1-yl)phenyl)pyrrolo[2,1-f][1,2,4]triazin-5-yl)piperidin-3-yl)-5-chlorothiophene-2-carboxamide], the figure is 1 nM; as for `COc1ccc(-n2cc(OCCN(C)C)c(C(=O)N[C@@H]3CCCN(c4cc(-c5ccc(C#N)nc5)n5ncnc(N)c45)C3)n2)cc1` [Example 392], 151 nM. As for `CC1CN(CCOc2cc(Cl)sc2C(=O)N[C@@H]2CCCN(c3cc(-c4ccnc(C(F)F)c4)n4ncnc(N)c34)C2)CCO1` (stereo partly drawn) [Example 295, N-((R)-1-(4-amino-7-(2-(difluoromethyl)pyridin-4-yl)pyrrolo[2,1-f][1,2,4]triazin-5-yl)piperidin-3-yl)-5-chloro-3-(2-(2-methylmorpholino)ethoxy) thiophene-2-carboxamide], the figure is 7 nM; as for `CC(=O)N1CC=C(c2cc(N3CCC[C@@H](NC(=O)N4CCCC4)C3)c3c(N)ncnn23)C1` [Example 876, (R)-N-(1-(7-(1-acctyl-2,5-dihydro-1H-pyrrol-3-yl)-4-aminopyrrolo[2,1-f][1,2,4]triazin-5-yl)piperidin-3-yl)pyrrolidine-1-carboxamide], 264 nM; as for `COC(=O)N1CC=C(c2cc(N3CCC[C@@H](NC(=O)c4sc(Cl)cc4OC4CCN(CC(C)(C)O)CC4)C3)c3c(N)ncnn23)C1` [Example 619, Methyl (R)-3-(4-amino-5-(3-(5-chloro-3-((1-(2-hydroxy-2-methylpropyl)piperidin-4-yl)oxy)thiophene-2-carboxamido)piperidin-1-yl)pyrrolo[2,1-f][1,2,4]triazin-7-yl)-2,5-dihydro-1H-pyrrole-1-carboxylate], 11 nM. As for `CN(C)CCOc1cc(Cl)sc1C(=O)N[C@@H]1CCCN(c2cc(C3=CCN(C(=O)c4cnco4)C3)n3ncnc(N)c23)C1` [Example 907, (R)-N-(1-(4-amino-7-(1-(oxazole-5-carbonyl)-2,5-dihydro-1H-pyrrol-3-yl)pyrrolo[2,1-f][1,2,4]triazin-5-yI)piperidin~3-y1)-5-chloro-3-(2-(dimethylamino)ethoxy)thiophene-2-carboxamide], the figure is 4 nM; as for `Cn1cnc(C(=O)N[C@@H]2CCCN(c3cc(-c4ccc(S(C)(=O)=O)cc4)n4ncnc(N)c34)C2)c1` [Example 48, (R)-N-(1-(4-amino-7-(4-(methylsulfonyl)phenyl)pyrrolo[2,1-f][1,2,4]triazin-5-yl)piperidin-3-yl)-1-methyl-1H-imidazole-4-carboxamide], 307 nM. In the case of `CN1CCN(c2cccc(C(=O)N[C@@H]3CCCN(c4cc(-c5ccc(=O)[nH]c5)n5ncnc(N)c45)C3)n2)CC1` [Example 798, (R)-N-(1-(4-amino-7-(6-oxo-1,6-dihydropyridin-3-yl)pyrrolo[2,1-f][1,2,4]triazin-5-yl)piperidin-3-yl)-6-(4-methylpiperazin-1-yl)picolinamide], the IC50 is 21 nM. As for `C#Cc1cc(N2CCC[C@@H](NC(=O)c3ccc(Cl)s3)C2)c2c(N)ncnn12` [Example 862, (R)—N-(1-(4-amino-7-ethynylpyrrolo[2,1-f][1,2,4]triazin-5-yl)piperidin-3-yl)-5-chlorothiophene-2-carboxamide], the figure is 111 nM. `Nc1ncnn2c(-c3ccnc(F)c3)cc(N3CCC[C@@H](NC(=O)c4cccs4)C3)c12` [Example 153, (R)-N-(1-(4-amino-7-(2-fluoropyridin-4-yl)pyrrolo[2,1-f][1,2,4]triazin-5-yl)piperidin-3-yl)thiophene-2-carboxamide]: the IC50 was determined as 1 nM.

With `Cc1cc(C(=O)N[C@@H]2CCCN(c3cc(-c4ccc(S(C)(=O)=O)cc4)n4ncnc(N)c34)C2)ccn1` [Example 33, (R)-N-(1-(4-amino-7-(4-(methylsulfonyl)phenyl)pyrrolo[2,1-f][1,2,4]triazin-5-yl)piperidin-3-yl)-2-methylisonicotinamide], the concentration for half-maximal inhibition (IC50) turned out to be 9 nM. Take `CC(C)c1cc(C(=O)N[C@@H]2CCCN(c3cc(-c4ccc(S(C)(=O)=O)cc4)n4ncnc(N)c34)C2)on1` [Example 65, (R)-N-(1-(4-amino-7-(4-(methylsulfonyl)phenyl)pyrrolo [2,1-f][1,2,4]triazin-5-yl)piperidin-3-yl)-3-isopropylisoxazole-5-carboxamide]: the IC50 amounted to 19 nM.
